Measurements from US20120202794A1 (priority 2011, published 2012).

Columns and labels:
[1] = Cell cytotoxicity assay (MTS), CC90 as reported in Table 1, cell line not stated; assay type: cell-based; settings: human; cell line not given
Experimental: Cell cytotoxicity assays. Each compound (serially diluted from 100 μM) was added to Huh7 (2×10^3 cells/well), HepG2 (2×10^3 cells/well), BxPC3 (2×10^3 cells/well), or CEM (5×10^3 cells/well) cells and allowed to incubate for 8 days at 37° C. A medium only control was used to determine the minimum absorbance value […]. At the end of the growth period, MTS dye from the CellTiter 96 Aqueous One Solution Cell Proliferation Assay kit (Promega) was added to each well and the plate was incubated for an additional 2 hours. The absorbance at 490 nm was read with a Victor3 plate reader (Perkin Elmer) using the medium only control wells as blanks. The 90% inhibition value (CC90) was determined by comparing the absorbance in wells containing cells and test compound to untreated cell control wells.

HCV Replicon 1b = test: HCV inhibition assay, HCV replicon 1b (Clone A or ET-lunet cells; RT-PCR or luciferase reporter); assay type: cell-based; settings: Hepatitis C virus, 96 h, HCV replicon 1b; 4 days incubation; read-out: Replicon 1b potency EC90
Experimental: HCV inhibition assay. Clone A or ET-lunet cells were seeded at a density of 1500 or 3000 cells per well in a 96-well plate, respectively. Test compounds serially diluted in culture medium without G418 were added to cells so that the final DMSO concentration was 0.5%. Plates were incubated at 37° C. in a 5% CO2 atmosphere for 4 days. Inhibition of HCV RNA replication was determined by real time PCR (RT-PCR) or by measuring the levels of luminescence expressed via the luciferase reporter gene encoded within the ET replicon. Briefly, for the RT-PCR assay, total RNA was extracted using the RNeasy-96 kit as recommended by the manufacturer (Qiagen, Valencia, Calif.), reversed transcribed into cDNA, and amplified using primer and probe mix for HCV 5′-NTR RNA and human ribosomal RNA (rRNA) in a one-step RT-PCR reaction as described previously (50). A relative quantification method was used to determine the extent of inhibition. The threshold cycle (Ct) of rRNA was subtracted from the Ct of HCV RNA (ΔCt). The average ΔCt of the DMSO cell controls was then subtracted from the ΔCt of the compound treated sample (ΔΔCt). Percent inhibition was determined by using the following equation: %=(1−(2^−ΔΔC^t))×100. For the luciferase-based replicon assay, luminescence was measured by using a Victor3 plate reader (Perkin-Elmer, Boston, Mass.) following the addition of Bright-Glo reagent as recommended by the manufacturer (Promega, Madison, Wis.). Percent inhibition of HCV replication was determined by comparing the change in luminescence of the drug treated wells versus the DMSO cell controls. EC50 and EC90 values, the concentrations at which 50% and 90% inhibition were achieved, were determined using the GraphPad Prism software (San Diego, Calif.).

SMILES	CC90 at 8 days [1]	EC90 (HCV Replicon 1b)
CC(C)C[C@H]1CN(C(=O)C#Cc2ccccc2)[C@@H](CC(C)C)C(=O)N1 [Compound 114]	> 10 µM	4.08 µM
Cc1ccc(C#CC(=O)N2C[C@H](CC(C)C)NC(=O)[C@@H]2CC(C)C)cc1 [Compound 115]	> 10 µM	5.01 µM
CC(C)C[C@H]1CN(C(=O)C#Cc2ccc(F)c(F)c2)[C@@H](CC(C)C)C(=O)N1 [Compound 116]	> 10 µM	9.65 µM
CC(C)C[C@H]1CN(C(=O)C#Cc2ccc(F)cc2F)[C@@H](CC(C)C)C(=O)N1 [Compound 117]	> 10 µM	2.66 µM
COc1ccc(C#CC(=O)N2C[C@H](CC(C)C)NC(=O)[C@@H]2CC(C)C)cc1 [Compound 118]	> 10 µM	2.96 µM
CC(C)C[C@H]1CN(C(=O)C#Cc2ccc(Cl)cc2F)[C@@H](CC(C)C)C(=O)N1 [Compound 119]	> 10 µM	6.2 µM
CC(C)C[C@H]1CN(C(=O)C#Cc2ccc(Cl)cc2)[C@@H](CC(C)C)C(=O)N1 [Compound 120]	> 10 µM	9.16 µM
CC(C)C[C@H]1CN(C(=O)C#Cc2cc(F)c(F)c(F)c2)[C@@H](CC(C)C)C(=O)N1 [Compound 121]	> 10 µM	3.23 µM
CC(C)C[C@H]1CN(C(=O)C#Cc2ccc(C(F)(F)F)cc2)[C@@H](CC(C)C)C(=O)N1 [Compound 122]	> 10 µM	7.54 µM
CC(C)C[C@H]1CN(C(=O)c2cc(-c3ccc(F)c(F)c3)on2)[C@@H](CC(C)C)C(=O)N1 [Compound 123]	> 10 µM	0.97 µM
CC(C)C[C@H]1CN(C(=O)c2cc(-c3ccc(F)cc3)on2)[C@@H](CC(C)C)C(=O)N1 [Compound 124]	> 10 µM	0.11 µM
CC(C)C[C@H]1CN(C(=O)c2cc(-c3ccc(Cl)cc3)on2)[C@@H](CC(C)C)C(=O)N1 [Compound 125]	> 10 µM	0.26 µM
Cc1ccc(-c2cc(C(=O)N3C[C@H](CC(C)C)NC(=O)[C@@H]3CC(C)C)no2)cc1 [Compound 126]	> 10 µM	1.66 µM
COc1ccc(-c2cc(C(=O)N3C[C@H](CC(C)C)NC(=O)[C@@H]3CC(C)C)no2)cc1 [Compound 127]	> 10 µM	1.14 µM
CC(C)C[C@H]1CN(C(=O)c2cc(-c3cccc(F)c3)on2)[C@@H](CC(C)C)C(=O)N1 [Compound 128]	> 10 µM	0.84 µM
CC(C)C[C@H]1CN(C(=O)c2cc(-c3cccc(Cl)c3)on2)[C@@H](CC(C)C)C(=O)N1 [Compound 129]	> 10 µM	2.93 µM
COc1cccc(-c2cc(C(=O)N3C[C@H](CC(C)C)NC(=O)[C@@H]3CC(C)C)no2)c1 [Compound 130]	> 10 µM	5.75 µM
COc1ccccc1-c1cc(C(=O)N2C[C@H](CC(C)C)NC(=O)[C@@H]2CC(C)C)no1 [Compound 131]	> 10 µM	3.49 µM
CC(C)C[C@H]1CN(C(=O)c2cc(-c3ccc(C(C)(C)C)cc3)on2)[C@@H](CC(C)C)C(=O)N1 [Compound 132]	> 10 µM	4.33 µM
CC(C)C[C@H]1CN(C(=O)c2cc(-c3ccc(F)cc3F)on2)[C@@H](CC(C)C)C(=O)N1 [Compound 133]	> 10 µM	0.6 µM
CC(C)C[C@H]1CN(C(=O)c2cc(-c3ccc(Cl)c(F)c3)on2)[C@@H](CC(C)C)C(=O)N1 [Compound 134]	> 10 µM	0.89 µM
CC(C)C[C@H]1CN(C(=O)c2cc(-c3ccc(Br)cc3)on2)[C@@H](CC(C)C)C(=O)N1 [Compound 135]	> 10 µM	0.47 µM
CC(C)C[C@H]1CN(C(=O)c2cc(-c3ccc(C#N)cc3)on2)[C@@H](CC(C)C)C(=O)N1 [Compound 136]	> 10 µM	1.53 µM
CC(C)C[C@H]1C(=O)N[C@@H](C2CCCC2)CN1C(=O)c1cc(-c2ccc(C#N)cc2)on1 [Compound 137]	> 10 µM	0.8 µM
CC(C)C[C@H]1CN(C(=O)c2cc(-c3cccc(OC(F)(F)F)c3)on2)[C@@H](CC(C)C)C(=O)N1 [Compound 138]	> 10 µM	7.04 µM

SMILES	CC90 at 8 days [1]	EC90 (HCV Replicon 1b)
CC(C)C[C@H]1CN(C(=O)c2cc(-c3ccc(C(=O)N(C)C)cc3)on2)[C@@H](CC(C)C)C(=O)N1 [Compound 139]	> 10 µM	> 10 µM
CC(C)C[C@H]1CN(C(=O)c2cc(-c3ccc(N(C)C)cc3)on2)[C@@H](CC(C)C)C(=O)N1 [Compound 140]	> 10 µM	> 10 µM
CC(C)C[C@H]1CN(C(=O)c2cc(-c3ccc(F)c(Cl)c3)on2)[C@@H](CC(C)C)C(=O)N1 [Compound 141]	> 10 µM	1.78 µM
CC(C)C[C@H]1CN(C(=O)c2cc(-c3ccccc3F)on2)[C@@H](CC(C)C)C(=O)N1 [Compound 142]	> 10 µM	2.01 µM
CC(C)C[C@H]1CN(C(=O)c2cc(-c3ccc(Cl)cc3F)on2)[C@@H](CC(C)C)C(=O)N1 [Compound 143]	> 10 µM	1.21 µM
CC(C)C[C@H]1CN(C(=O)c2cc(-c3ccc(F)cc3)no2)[C@@H](CC(C)C)C(=O)N1 [Compound 144]	> 10 µM	0.33 µM
CC(C)C[C@H]1C(=O)N[C@@H](c2ccccc2)CN1C(=O)c1cc(-c2ccc(F)cc2)no1 [Compound 145]	> 10 µM	0.23 µM
CC(C)C[C@H]1C(=O)N[C@@H](C(C)C)CN1C(=O)c1cc(-c2ccc(F)cc2)no1 [Compound 146]	> 10 µM	0.73 µM
CSC[C@H]1CN(C(=O)c2cc(-c3ccc(F)cc3)no2)[C@@H](CC(C)C)C(=O)N1 [Compound 147]	> 10 µM	1.27 µM
CC(C)C[C@H]1CN(C(=O)c2nc(-c3ccc(F)cc3)no2)[C@@H](CC(C)C)C(=O)N1 [Compound 148]	> 10 µM	0.37 µM
CCC[C@H]1CN(C(=O)c2nc(-c3ccc(F)cc3)no2)[C@@H](CC(C)C)C(=O)N1 [Compound 149]	> 10 µM	0.05 µM
CCC[C@H]1CN(C(=O)c2nc(-c3ccccc3)no2)[C@@H](CC(C)C)C(=O)N1 [Compound 150]	> 10 µM	0.59 µM
CC(C)C[C@H]1C(=O)N[C@@H](c2ccccc2)CN1C(=O)c1nc(-c2ccc(F)cc2)no1 [Compound 151]	> 10 µM	0.04 µM
CC(C)C[C@H]1C(=O)N[C@@H](C2CCCC2)CN1C(=O)c1nc(-c2ccc(F)cc2)no1 [Compound 152]	> 10 µM	0.11 µM
CC(C)C[C@H]1C(=O)N[C@@H](C(C)C)CN1C(=O)c1nc(-c2ccc(F)cc2)no1 [Compound 153]	> 10 µM	0.22 µM
CSC[C@H]1CN(C(=O)c2nc(-c3ccc(F)cc3)no2)[C@@H](CC(C)C)C(=O)N1 [Compound 154]	> 10 µM	0.78 µM
CC(C)C[C@H]1CN(C(=O)c2cc(-c3ccc([N+](=O)[O-])cc3)on2)[C@@H](CC(C)C)C(=O)N1 [Compound 155]	> 10 µM	2.6 µM
CC(C)C[C@H]1C(=O)N[C@@H](C2CCCCC2)CN1C(=O)c1cc(-c2ccc(F)cc2F)on1 [Compound 156]	> 10 µM	1.15 µM
CC(C)C[C@H]1C(=O)N[C@@H](C2CCCC2)CN1C(=O)c1cc(-c2ccc(F)cc2F)on1 [Compound 157]	> 10 µM	0.49 µM
CCC[C@H]1CN(C(=O)c2cc(-c3ccc(Cl)c(F)c3)on2)[C@@H](CC(C)C)C(=O)N1 [Compound 158]	> 10 µM	0.44 µM
CC(C)C[C@H]1C(=O)N[C@@H](C2CCCCC2)CN1C(=O)c1cc(-c2ccc(Cl)c(F)c2)on1 [Compound 159]	> 10 µM	0.71 µM
CC(C)C[C@H]1C(=O)N[C@@H](C2CCCC2)CN1C(=O)c1cc(-c2ccc(Cl)c(F)c2)on1 [Compound 160]	> 10 µM	0.41 µM
CCC[C@H]1CN(C(=O)c2cc(-c3ccc(F)cc3)on2)[C@@H](CC(C)C)C(=O)N1 [Compound 161]	> 10 µM	0.07 µM
CC(C)C[C@H]1C(=O)N[C@@H](C2CCCCC2)CN1C(=O)c1cc(-c2ccc(F)cc2)on1 [Compound 162]	> 10 µM	1.8 µM
